Measured values from ChEMBL document CHEMBL1909046, “DrugMatrix in vitro pharmacology data”.

Columns and labels:
[1] = biological target: Prostaglandin G/H synthase 1 (Homo sapiens, UniProt P23219); experiment: biochemical; type: tissue-based, Platelet; conditions: platelet;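 also: inhibition of COX-1 enzyme activity, with arachidonic acid supplied as substrate; in other assays of this panel Not Active means under 50% inhibition at 10 µM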
[2] = DRUGMATRIX: GABAA, Flunitrazepam, Central radioligand binding (ligand: [3H] Flunitrazepam); type: cell membranes, Rattus norvegicus, Wistar, Brain, Membrane; conditions: Not Active = under 50% inhibition at 10 µM
Calcitonin receptor = biological target: T1, Calcitonin receptor (Homo sapiens, UniProt P30988); type: cell membranes, Membrane; conditions: t47d; also: in other assays of this panel Not Active means under 50% inhibition at 10 µM
T1 sequence (P30988 whole entry): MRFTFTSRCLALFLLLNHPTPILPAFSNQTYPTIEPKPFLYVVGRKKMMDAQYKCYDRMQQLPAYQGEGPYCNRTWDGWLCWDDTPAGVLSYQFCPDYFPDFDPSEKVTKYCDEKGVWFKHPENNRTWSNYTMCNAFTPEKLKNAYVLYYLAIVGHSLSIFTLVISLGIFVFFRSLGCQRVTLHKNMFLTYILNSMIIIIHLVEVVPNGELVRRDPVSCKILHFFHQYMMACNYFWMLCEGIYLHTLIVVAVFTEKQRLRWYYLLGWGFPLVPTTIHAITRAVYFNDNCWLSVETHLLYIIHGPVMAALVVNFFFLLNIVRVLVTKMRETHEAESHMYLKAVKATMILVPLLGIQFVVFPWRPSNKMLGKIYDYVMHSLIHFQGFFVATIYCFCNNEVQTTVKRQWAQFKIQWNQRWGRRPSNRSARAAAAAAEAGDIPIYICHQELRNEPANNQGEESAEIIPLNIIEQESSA

[3] = DRUGMATRIX: Glutamate, NMDA, Phencyclidine radioligand binding (ligand: [3H] TCP); type: cell membranes, Rattus norvegicus, Wistar, Cerebral cortex, Membrane; conditions: Not Active = under 50% inhibition at 10 µM
Adenosine receptor A1 = biological target: T2, Adenosine receptor A1 (Homo sapiens, UniProt P30542); type: cell membranes, CHO, Membrane; conditions: cho;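 also: radioligand binding assay at the adenosine A1 receptor, with DPCPX serving as the labelled ligand; in other assays of this panel Not Active means under 50% inhibition at 10 µM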
T2 sequence (P30542 whole entry): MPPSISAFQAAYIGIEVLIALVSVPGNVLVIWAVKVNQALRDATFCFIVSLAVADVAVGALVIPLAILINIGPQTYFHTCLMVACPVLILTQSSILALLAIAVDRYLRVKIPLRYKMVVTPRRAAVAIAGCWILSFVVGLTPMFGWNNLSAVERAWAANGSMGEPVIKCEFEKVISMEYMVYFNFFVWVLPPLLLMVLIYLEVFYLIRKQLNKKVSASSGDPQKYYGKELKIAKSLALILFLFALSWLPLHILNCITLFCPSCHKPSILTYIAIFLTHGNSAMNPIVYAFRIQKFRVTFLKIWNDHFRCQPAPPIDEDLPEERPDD

Endothelin-1 receptor = biological target: T3, Endothelin-1 receptor (Homo sapiens, UniProt P25101); type: cell membranes, Membrane; conditions: cho-k1; also: in other assays of this panel Not Active means under 50% inhibition at 10 µM
T3 sequence (P25101 whole entry): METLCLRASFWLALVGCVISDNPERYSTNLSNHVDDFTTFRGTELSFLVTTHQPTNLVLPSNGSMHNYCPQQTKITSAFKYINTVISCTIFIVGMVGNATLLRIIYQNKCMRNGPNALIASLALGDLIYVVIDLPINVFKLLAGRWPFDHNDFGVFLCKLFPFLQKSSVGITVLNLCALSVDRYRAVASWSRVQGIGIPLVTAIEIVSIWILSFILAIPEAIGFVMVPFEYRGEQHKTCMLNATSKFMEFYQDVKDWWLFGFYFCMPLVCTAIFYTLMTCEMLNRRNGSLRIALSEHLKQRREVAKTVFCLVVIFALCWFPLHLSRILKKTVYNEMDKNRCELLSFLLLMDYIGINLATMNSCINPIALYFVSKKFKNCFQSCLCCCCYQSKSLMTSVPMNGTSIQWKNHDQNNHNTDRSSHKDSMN

Chain of Prostaglandin G/H synthase 1 (P23219 whole entry): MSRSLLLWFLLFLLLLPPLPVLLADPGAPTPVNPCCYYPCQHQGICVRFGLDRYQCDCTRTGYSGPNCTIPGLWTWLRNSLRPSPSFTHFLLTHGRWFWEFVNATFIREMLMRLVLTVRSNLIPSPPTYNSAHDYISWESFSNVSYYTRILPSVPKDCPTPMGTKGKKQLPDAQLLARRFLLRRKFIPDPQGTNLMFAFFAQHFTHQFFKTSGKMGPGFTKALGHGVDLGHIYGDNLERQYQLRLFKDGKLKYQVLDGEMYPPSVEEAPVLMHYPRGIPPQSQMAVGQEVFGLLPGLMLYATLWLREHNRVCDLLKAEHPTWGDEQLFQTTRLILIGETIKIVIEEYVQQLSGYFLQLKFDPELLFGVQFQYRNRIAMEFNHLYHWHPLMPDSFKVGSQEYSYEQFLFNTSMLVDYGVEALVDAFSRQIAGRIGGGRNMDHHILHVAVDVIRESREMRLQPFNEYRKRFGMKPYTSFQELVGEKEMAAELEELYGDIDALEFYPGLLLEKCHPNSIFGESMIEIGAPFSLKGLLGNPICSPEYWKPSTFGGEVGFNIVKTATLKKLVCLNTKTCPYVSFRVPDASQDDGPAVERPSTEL

| SMILES | IC50 [1] | IC50 [2] | Ki [2] | IC50 (Calcitonin receptor) | IC50 ([3]; read-out: IC50) | Ki ([3]; read-out: Ki) | IC50 (Adenosine receptor A1) | IC50 (Endothelin-1 receptor) | IC50 [3] | Ki [3] | IC50 ([2]; read-out: IC50) | Ki ([2]; read-out: Ki) |
| --- | --- | --- | --- | --- | --- | --- | --- | --- | --- | --- | --- | --- |
| NC12CC3CC(CC(C3)C1)C2 [AMANTADINE] | Not Active | Not Active | Not Active | Not Active | 32 µM | 21.7 µM | Not Active | Not Active |  |  |  |  |
| NCCCNCCSP(=O)(O)O [AMIFOSTINE] | Not Active | Not Active | Not Active | Not Active |  |  | Not Active | Not Active | Not Active | Not Active |  |  |
| CN(C)CCC=C1c2ccccc2CCc2ccccc21 [AMITRIPTYLINE] | Not Active | Not Active | Not Active | Not Active |  |  | Not Active | Not Active | Not Active | Not Active |  |  |
| CC(C)c1c(C(=O)Nc2ccccc2)c(-c2ccccc2)c(-c2ccc(F)cc2)n1CC[C@@H](O)C[C@@H](O)CC(=O)O [ATORVASTATIN] | Not Active | Not Active | Not Active | Not Active |  |  | Not Active | Not Active | Not Active | Not Active |  |  |
| CC(=O)OC[C@H]1O[C@@H](n2ncc(=O)[nH]c2=O)[C@H](OC(C)=O)[C@@H]1OC(C)=O [AZARIBINE] | Not Active | Not Active | Not Active | Not Active |  |  | Not Active | Not Active | Not Active | Not Active |  |  |
| C[C@H]1[C@H](NC(=O)/C(=N\OC(C)(C)C(=O)O)c2csc(N)n2)C(=O)N1S(=O)(=O)O [AZTREONAM] | Not Active | Not Active | Not Active | Not Active |  |  | Not Active | Not Active | Not Active | Not Active |  |  |
| O=C(O)CCNC(=O)c1ccc(/N=N/c2ccc(O)c(C(=O)O)c2)cc1 [BALSALAZIDE] | Not Active | Not Active | Not Active | Not Active |  |  | Not Active | Not Active | Not Active | Not Active |  |  |
| COc1cc(OC)c(C(=O)CCCN2CCCC2)c(OC)c1 [BUFLOMEDIL] | Not Active | Not Active | Not Active | Not Active |  |  | Not Active | Not Active | Not Active | Not Active |  |  |
| ClC(Cl)(Cl)Cl [CARBON TETRACHLORIDE] | Not Active | Not Active | Not Active | Not Active |  |  | Not Active | Not Active | Not Active | Not Active |  |  |
| CO/N=C(\C(=O)N[C@@H]1C(=O)N2C(C(=O)O)=C(COC(C)=O)CS[C@H]12)c1csc(N)n1 [CEFOTAXIME] | Not Active | Not Active | Not Active | Not Active |  |  | Not Active | Not Active | Not Active | Not Active |  |  |
| CNC1=Nc2ccc(Cl)cc2C(c2ccccc2)=[N+]([O-])C1 [CHLORDIAZEPOXIDE] | Not Active |  |  | Not Active |  |  | Not Active | Not Active | Not Active | Not Active | 1.43 µM | 1.16 µM |
| Cc1cc(O)cc(C)c1Cl [CHLOROXYLENOL] | Not Active | Not Active | Not Active | Not Active |  |  | Not Active | Not Active | Not Active | Not Active |  |  |
| CCCNC(=O)NS(=O)(=O)c1ccc(Cl)cc1 [CHLORPROPAMIDE] | Not Active | Not Active | Not Active | Not Active |  |  | Not Active | Not Active | Not Active | Not Active |  |  |
| NS(=O)(=O)c1cc(C2(O)NC(=O)c3ccccc32)ccc1Cl (stereo not drawn) [CHLORTHALIDONE] | Not Active | Not Active | Not Active | Not Active |  |  | Not Active | Not Active | Not Active | Not Active |  |  |
| O=C(O)CC(O)(CC(=O)O)C(=O)O [CITRIC ACID] | Not Active | Not Active | Not Active | Not Active |  |  | Not Active | Not Active | Not Active | Not Active |  |  |
| CC(C)NCC(O)c1ccccc1Cl (stereo not drawn) [CLORPRENALINE] | Not Active | Not Active | Not Active | Not Active |  |  | Not Active | Not Active | Not Active | Not Active |  |  |
| CN1CCN(C(c2ccccc2)c2ccccc2)CC1 [CYCLIZINE] | Not Active | Not Active | Not Active | Not Active |  |  | Not Active | Not Active | Not Active | Not Active |  |  |
| CN1C[C@@H]2C[C@H]1CN2c1cc2c(cc1F)c(=O)c(C(=O)O)cn2C1CC1 [DANOFLOXACIN] | Not Active | Not Active | Not Active | Not Active |  |  | Not Active | Not Active | Not Active | Not Active |  |  |
| COc1cccc2c1C(=O)c1c(O)c3c(c(O)c1C2=O)C[C@@](O)(C(C)=O)C[C@@H]3O[C@H]1C[C@H](N)[C@H](O)[C@H](C)O1 [DAUNORUBICIN] | Not Active | Not Active | Not Active | Not Active |  |  | Not Active | Not Active | Not Active | Not Active |  |  |
| O=C(O)c1cc(-c2ccc(F)cc2F)ccc1O [DIFLUNISAL] | Not Active | Not Active | Not Active | Not Active |  |  | Not Active | Not Active | Not Active | Not Active |  |  |
| C[S+](C)[O-] [DIMETHYL SULFOXIDE] | Not Active | Not Active | Not Active | Not Active |  |  | Not Active | Not Active | Not Active | Not Active |  |  |
| CC1=NN(c2ccccc2)C(=O)C1 [EDARAVONE] | Not Active | Not Active | Not Active | Not Active |  |  | Not Active | Not Active | Not Active | Not Active |  |  |
| CC(C)C[C@H]1C(=O)N2CCC[C@H]2[C@]2(O)O[C@](NC(=O)[C@@H]3C=C4c5cccc6[nH]cc(c56)C[C@H]4N(C)C3)(C(C)C)C(=O)N12 [ERGOCRYPTINE] | Not Active | Not Active | Not Active | Not Active |  |  | Not Active | Not Active | Not Active | Not Active |  |  |
| C[C@]12CC[C@@H]3c4ccc(O)cc4CC[C@H]3[C@@H]1C[C@@H](O)[C@@H]2O [ESTRIOL] | Not Active | Not Active | Not Active | Not Active |  |  | Not Active | Not Active | Not Active | Not Active |  |  |
| C#C[C@]1(O)CC[C@H]2[C@@H]3CCC4=CC(=O)CC[C@]4(C)[C@H]3CC[C@@]21C [ETHISTERONE] | Not Active | Not Active | Not Active | Not Active |  |  | Not Active | Not Active | Not Active | Not Active |  |  |
| CC(O)(P(=O)(O)O)P(=O)(O)O [ETIDRONIC ACID] | Not Active | Not Active | Not Active | Not Active |  |  | Not Active | Not Active | Not Active | Not Active |  |  |
